Results from US6656931B2, “Vasopressin antagonist and diuretic combination” (Wyeth Holdings Corporation, priority 1999, dated 2003).
Read-outs that look alike come from different tables or passages of the source.

Legend:
[1] = tested on: renal function in anesthetized rats; settings: for Na+ excretion / free water clearance / urine flow rate / urine osmolality: anesthetized rats; for glomerular filtration rate (GFR): rat, in vivo
Protocol: NaCl reabsorption in the thick ascending limb of the Loop of Henle (TALH) creates free water that is reabsorbed in the collecting duct in the presence of vasopressin. […] Either V (3 mg/kg), F (5 mg/kg), both V and F (V/F) or the vehicles were administered intraduodenally.

[2] = Human single dose crossover drug interaction study, pharmacokinetics; format: in vivo
Protocol: (§1) The study lasted approximately 30 days, and included a pre-enrollment evaluation of up to 2 weeks before dose administration, and three 2-day (2-night) confinement periods. The doses were separated by at least a 1 week interval. The clinical portion of the study was completed in approximately 2 months.
(§2) The VPA-985 suspension (25 mg and 50 mg powder reconstituted) was administered in 150 mL of Sprite® brand lemon-lime soda (a product of The Coca-Cola Company) followed by 100 mL of room-temperature water (250 mL of fluid total).
(§3) Areas under concentration-time curves(AUCT) (AUC) and AUC truncated at the last observed concentration (CT)AUCT) were determined by using the linear/log trapezoidal method. Statistical comparisons were made using by an analysis of variance (ANOVA). Confidence limits (90%) for pharmacokinetic parameters were constructed on a log scale using the two one-sided tests procedure. An interaction was judged to be significant if a 35% difference was detected between either single agent and the two drugs administered concomitantly.

healthy men = test: Human single dose crossover drug interaction study, pharmacodynamics (urine flow, electrolytes); format: in vivo; settings: for mean urine volume: 0 to 4 h interval, single oral doses VPA-985 75 mg; for mean urine volume / peak urine flow: furosemide 40 mg, or both; for peak urine flow: single oral doses: VPA-985 75 mg
Protocol: as §1, §2, §3

[3] = after intraduodenal administration (V 3 mg/kg, F 5 mg/kg)
[4] = baseline, before compound administration
[5] = VPA-985 75 mg administered with furosemide 40 mg
[6] = after coadministration with VPA-985 75 mg

With `Cc1ccc(F)cc1C(=O)Nc1ccc(C(=O)N2Cc3cccn3Cc3ccccc32)c(Cl)c1` [VPA-985, N-[4-(5H-pyrrolo[2,1-c][1,4]benzodiazepin-10(11H)ylcarbonyl)-3-chlorophenyl]-5-fluoro-2-methyl-benzamide] the “Na+ excretion” value [1, 3] was 0.67±0.34 μEq/min, the free water clearance [1, 3] was -6.96 ± 5.17 µL/min and the urine flow rate [1, 3] was 19.51 ± 3.80 µL/min. For the same compound, the urine osmolality [1, 3] was 571±145 mOsm/kg, the “Na+ excretion” value [1, 4] was 0.10±0.02 μEq/min and the free water clearance [1, 4] was -17.31 ± 1.84 µL/min. The urine flow rate [1, 4] was 5.26 ± 1.13 µL/min, the urine osmolality [1, 4] was 1456±166 mOsm/kg and the glomerular filtration rate (GFR) [1] was 2.04 ± 0.15 mL/min. For the same compound, the “AUCs of VPA-985, compared to VPA-985 alone” value [2, 5] was “no differences”, the “Cmax of VPA-985, compared to VPA-985 alone” value [2, 5] was “no differences” and the AUC ([2]; male, human, in vivo, single oral dose VPA-985 75-mg suspension alone, healthy men) was 968 ng·h/mL. For the same compound, the Cmax ([2]; male, human, in vivo, single oral dose VPA-985 75-mg suspension alone, healthy men, read-out: mean peak concentration (Cmax) of VPA-985) was 617 ng/mL, the Tmax ([2]; male, human, in vivo, single oral dose VPA-985 75-mg suspension alone, healthy men, read-out: mean time of peak concentration (tmax) of VPA-985) was < 1 h and the mean urine volume (healthy men) was 1157 mL. The “increase in mean serum sodium” value (healthy men; 0 to 4 hours after the dose) was 2 mmol/L, the “0 to 4 h urinary excretion of sodium, potassium, chloride and magnesium” value (healthy men; VPA-985 alone compared with VPA-985 and furosemide administered concomitantly) was “significantly less” and the “tmax of peak effect in urine flow” value (healthy men; after administration of single doses, healthy men) was “approximately 1.5 h”. The “effect on serum potassium” value (healthy men; single oral dose VPA-985 75 mg alone) was “did not alter” and the peak urine flow (healthy men; healthy men) was 8.4 mL/min.

`NS(=O)(=O)c1cc(C(=O)O)c(NCc2ccco2)cc1Cl` [furosemide, reference compound] showed a urine flow rate [1, 3] of 17.02 ± 4.86 µL/min, a urine osmolality [1, 3] of 699±69 mOsm/kg and a urine flow rate [1, 4] of 3.74 ± 0.18 µL/min. For the same compound, the urine osmolality [1, 4] was 1515±96 mOsm/kg, the glomerular filtration rate (GFR) [1] was 1.87 ± 0.15 mL/min and the “CLr of furosemide, versus furosemide alone” value [2, 6] was “no difference”. For the same compound, the “amount of furosemide recovered from urine (Ut), versus furosemide alone” value [2, 6] was “no difference”, the mean urine volume (healthy men) was 1524 mL and the serum potassium (healthy men; at 0 h) was 4.2 mmol/L. For the same compound, the serum potassium (healthy men; at 4 hours after the dose) was 3.9 mmol/L and the peak urine flow (healthy men; healthy men) was 9.3 mL/min.
